Experimental data reported in US20260240879A1, “TOPICAL PALA THERAPY FOR CANCER” (priority 2023, published 2026).

Experiments:
[1] = test system: cytokines and chemokines in treated skin; settings: mouse, in vivo
Procedure: The topical formulations of 2% PALA/50% acetone/10% glycerol, 5% imiquimod (IMQ), 5% 5-FU (5-FU), vehicle (50% acetone/10% glycerol) control, and Aquaphor were applied (~0.05 g/mouse) daily to the dorsal skin of SKH1-Elite female mice (8 weeks of age; n=5/group) for 7 days. […] Mice were monitored daily for weight change, skin appearance, and signs of distress.
Skin protein lysates were made by homogenizing frozen tissue with a pestle and scissors in RIPA buffer (50 mM Tris, pH8, 150 mM NaCl, 0.5% sodium deoxycholate, 1% NP-40, 0.1% sodium dodecyl sulfate, lx Pierce protease inhibitor cocktail (A32965, ThermoFisher)). Cytokines and chemokines were quantified from 25 μg of lysate using a custom 10-plex U-PLEX panel (K15069L-2; Meso Scale Discovery) that included: GM-CSF, KC/CXCL1, IFNα, IFNβ, IFNγ, IL-10, IL-6, IL-12p70, IL-17A, IL-17C, IL-17F, IP-10/CXCL10, MCP-1/CCL2, RANTES/CCL5, and TNFα. The MESO SECTOR S 600 plate reader (ICOAA-0; Meso Scale Discovery) was used to collect the U-Plex data and data was analyzed using MSD Discovery Workbench 4.0 software.

[2] = biological target: T1, aspartate transcarbamylase (Homo sapiens, UniProt P27708); assay: Aspartate transcarbamylase activity in lysates of PALA-treated fibroblasts; type: cell-based; settings: at doses that induce maximal immune stimulation, 16 h
T1 construct: endogenous in cells; host or cells: normal human dermal fibroblasts
T1 sequence (P27708 2-2225 limits assumed): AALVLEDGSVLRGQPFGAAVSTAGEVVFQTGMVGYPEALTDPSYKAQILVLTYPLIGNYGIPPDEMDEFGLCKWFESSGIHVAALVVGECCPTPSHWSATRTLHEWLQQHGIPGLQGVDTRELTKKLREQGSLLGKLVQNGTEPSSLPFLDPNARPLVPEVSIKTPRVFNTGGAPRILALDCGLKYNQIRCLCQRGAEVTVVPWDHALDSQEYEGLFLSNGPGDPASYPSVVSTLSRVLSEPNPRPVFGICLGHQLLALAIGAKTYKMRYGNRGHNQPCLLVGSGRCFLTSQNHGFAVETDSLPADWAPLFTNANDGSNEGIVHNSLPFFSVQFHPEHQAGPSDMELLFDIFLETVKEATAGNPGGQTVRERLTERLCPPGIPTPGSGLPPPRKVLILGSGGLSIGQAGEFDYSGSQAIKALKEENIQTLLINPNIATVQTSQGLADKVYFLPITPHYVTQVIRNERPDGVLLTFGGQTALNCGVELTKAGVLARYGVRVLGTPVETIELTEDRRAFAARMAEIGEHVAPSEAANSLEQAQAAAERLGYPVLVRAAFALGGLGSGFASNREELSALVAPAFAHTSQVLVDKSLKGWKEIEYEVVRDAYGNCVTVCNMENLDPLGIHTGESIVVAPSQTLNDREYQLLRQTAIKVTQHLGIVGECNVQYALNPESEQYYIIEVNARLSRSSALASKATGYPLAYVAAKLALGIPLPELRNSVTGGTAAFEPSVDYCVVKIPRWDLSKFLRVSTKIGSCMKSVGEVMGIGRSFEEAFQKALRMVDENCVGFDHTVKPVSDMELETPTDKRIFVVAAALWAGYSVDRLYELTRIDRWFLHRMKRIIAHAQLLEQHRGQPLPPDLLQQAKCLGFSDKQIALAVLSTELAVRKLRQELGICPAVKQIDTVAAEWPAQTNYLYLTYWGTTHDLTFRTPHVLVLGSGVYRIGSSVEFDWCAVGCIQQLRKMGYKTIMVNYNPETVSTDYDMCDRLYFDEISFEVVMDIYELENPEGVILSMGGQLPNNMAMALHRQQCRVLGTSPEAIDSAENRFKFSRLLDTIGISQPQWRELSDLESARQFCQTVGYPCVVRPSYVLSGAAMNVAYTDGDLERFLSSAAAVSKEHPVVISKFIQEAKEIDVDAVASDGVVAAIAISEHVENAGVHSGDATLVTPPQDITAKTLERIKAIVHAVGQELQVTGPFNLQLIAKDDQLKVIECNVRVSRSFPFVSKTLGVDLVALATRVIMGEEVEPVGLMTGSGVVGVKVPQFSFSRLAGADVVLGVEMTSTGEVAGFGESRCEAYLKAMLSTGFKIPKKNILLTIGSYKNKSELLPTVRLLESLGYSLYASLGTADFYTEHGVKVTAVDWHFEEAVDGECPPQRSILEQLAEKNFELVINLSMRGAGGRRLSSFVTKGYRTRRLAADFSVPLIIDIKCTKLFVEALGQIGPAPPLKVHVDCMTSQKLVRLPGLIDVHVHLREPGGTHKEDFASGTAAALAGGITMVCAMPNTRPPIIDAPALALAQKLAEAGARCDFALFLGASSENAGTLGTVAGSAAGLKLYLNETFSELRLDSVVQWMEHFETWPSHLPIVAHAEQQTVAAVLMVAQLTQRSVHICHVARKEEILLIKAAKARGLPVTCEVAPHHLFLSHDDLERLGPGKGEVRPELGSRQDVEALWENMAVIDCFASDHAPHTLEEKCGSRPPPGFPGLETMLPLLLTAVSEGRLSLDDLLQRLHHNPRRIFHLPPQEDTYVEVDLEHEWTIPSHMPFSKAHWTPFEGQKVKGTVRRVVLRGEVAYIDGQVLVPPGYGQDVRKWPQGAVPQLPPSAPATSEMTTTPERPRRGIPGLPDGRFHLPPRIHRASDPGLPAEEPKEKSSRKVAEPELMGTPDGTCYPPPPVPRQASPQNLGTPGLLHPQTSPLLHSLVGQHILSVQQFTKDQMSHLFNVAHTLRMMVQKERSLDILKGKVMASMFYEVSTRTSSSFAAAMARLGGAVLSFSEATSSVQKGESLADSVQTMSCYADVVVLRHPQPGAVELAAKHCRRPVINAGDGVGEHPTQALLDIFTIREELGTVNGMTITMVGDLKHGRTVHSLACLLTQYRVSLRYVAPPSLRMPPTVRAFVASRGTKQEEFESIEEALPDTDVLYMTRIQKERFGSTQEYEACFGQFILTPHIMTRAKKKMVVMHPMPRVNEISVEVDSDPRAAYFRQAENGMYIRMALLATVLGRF
Procedure: (§1) A. Bactericidal activity of normal human dermal fibroblasts stimulated by PALA treatment. Cells stimulated for 16 h with the indicated concentration of PALA. Conditioned supernatants added to log phase cultures of methicillin-resistant Staphylococcus aureus (MRSA) for 2 h and viable bacterial determined by selective plating. Mean±SD graphed. B. PALA-stimulated production of antimicrobial peptides in normal human dermal fibroblasts. Cells were stimulated as in A. and supernatants assayed by ELISA for human β-defensin 2 (HBD2) and human β-defensin 3 (HBD3). Mean±SD graphed. C. […] Cell lysates from the cells shown in A. were assayed for their ability to catalyze the formation of carbamyl aspartate (CA) in vitro. Percent change in CA levels graphed; mean±SD. […] D. Average number of tumors per mouse at the end of the treatment period (mean±SEM graphed). D. Mice treated for 10 weeks with vehicle (Aquaphor), 1%, 2%, or 5% PALA in Aquaphor. E. Mice treated for 4 weeks with vehicle (AP0536/29/02), 2% (w/w) PALA (AP0536/29/02), or 4% (w/w) PALA (AP0536/29/02).

[3] = test system: MOC-1 squamous cell carcinoma cells; assay: Oral squamous cell carcinoma orthotopic xenograft (tongue); type: in vivo, C57Bl/6 mice; settings: 2% (w/w) PALA (AP0536/29/02), tongue treated topically 5×/week
Procedure: FIG. 18: Tumor growth of oral squamous cell carcinoma orthotopic xenografts is retarded by topical PALA treatment. C57Bl/6 mice (males and females; n=6/group) were injected with MOC-1 squamous cell carcinoma cells in the tongue. Once palpable tumors formed, mouse tongues were treated topically 5×/week with vehicle (AP0536/29/02) or 2% (w/w) PALA (AP0536/29/02). Tumor volume was measured by caliper every 2-3 days. Data are graphed as mean±SEM. Significant differences were determined by Mixed-effects Model (REML) with Sidak's multiple comparison test. *p<0.05, ****p<0.0001.

[4] = test system: normal human dermal fibroblasts; assay: PALA stimulation of normal human dermal fibroblasts (bactericidal activity against MRSA, antimicrobial peptides); type: cell-based; settings: cells stimulated for 16 h with PALA
Procedure: as §1

[5] = In vitro diffusion test (Franz cells); type: in vitro ADME; settings: PALA 50 mg/g, 37° C., PBS pH 7.4
Procedure: All the formulations were prepared by accurately weighing 50 mg PALA in a 4 mL glass vial. The vial was stirred at RT until a clear solution was obtained. Exception for poloxamers P407 20% w/w and P188 at 40% w/w where the PALA solubilisation was performed by stirring the vial in an ice bath (to prevent gelling which occurred at RT).
In vitro diffusion test (Franz cells, Copley) was performed to mimicking in-vivo conditions of PALA (CMI-34-1) transfer from the formulation through the skin. The test was performed in sink conditions. 100 μL of PALA (CMI-34-1)-loaded hydrogels or bi-gel (containing 5 mg of API) were added to the donor chamber of the Franz cells. 7 mL of PBS pH 7.4 was added to the receptor chamber. The chambers were separated by a Strat-M Membrane (Transdermal Diffusion Test Model, Merck) of 25 mm diameter. The Franz cells were incubated at 37° C. in an appropriate heating block and under stirring at 450 rpm. At selected time points (15, 30, 60, 120, 180, and 1440 minutes), 100 μL of samples was withdrawn from the receptor chamber and analysed by HPLC for drug release. The same volume was replaced with fresh PBS buffer pre-heated at 37° C.

O=C(O)CC(NC(=O)CP(=O)(O)O)C(=O)O [PALA, N-phosphonacetyl-L-aspartate]
GM-CSF, Mean (SEM) [1]: 1.0 (0.1)
IL-6, Mean (SEM) [1]: 38.8 (8.1)
IL-17A, Mean (SEM) [1]: 0.5 (0.09)
IL-17C, Mean (SEM) [1]: 0.6 (0.1)
KC, Mean (SEM) [1]: 31.1 (2.8)
RANTES, Mean (SEM) [1]: 46.4 (9.6)
expression of inflammatory cytokine/chemokine panel in treated skin (in words) [1]: no changes
reduction of aspartate transcarbamylase enzyme activity (carbamyl aspartate formation) [2]: ~ 25%
tumor growth (tumor volume) [3]: retarded
shape of dose-response curve (bactericidal activity, HBD2, HBD3) [4]: U-shaped dose-response curve
PALA permeated / released after 24 hours [5]: ~ 0.3%
